The NIST ThermoML archive (doi:10.1021/je060271a)

Details: 343.15 K, Liquid, Vibrating tube method

CCCC(=O)OCC(COC(=O)CCC)(COC(=O)CCC)COC(=O)CCC [pentaerythritol tetrabutyrate]
Details | mass density [kg/m3]
27905 kPa | 1028.5
27944 kPa | 1028.4
27976 kPa | 1028.5
28014 kPa | 1028.6
28054 kPa | 1028.6
28087 kPa | 1028.5
28127 kPa | 1028.6
28281 kPa | 1028.7
28314 kPa | 1028.6
28355 kPa | 1028.7
28389 kPa | 1028.6
28430 kPa | 1028.9
28465 kPa | 1028.7
28506 kPa | 1028.8
28548 kPa | 1028.9
28583 kPa | 1028.8
28623 kPa | 1028.9
28658 kPa | 1029
28700 kPa | 1028.9
28735 kPa | 1029.1
28776 kPa | 1029
28818 kPa | 1029
28853 kPa | 1029.1
28895 kPa | 1029.1
28938 kPa | 1029.2
28973 kPa | 1029.2
29016 kPa | 1029.2
29052 kPa | 1029.3
29095 kPa | 1029.1
29138 kPa | 1029.2
29173 kPa | 1029.4
29217 kPa | 1029.4
29262 kPa | 1029.3
29299 kPa | 1029.4
29344 kPa | 1029.3
29386 kPa | 1029.4
29417 kPa | 1029.3
29455 kPa | 1029.4
29492 kPa | 1029.5
29524 kPa | 1029.5
29563 kPa | 1029.6
29744 kPa | 1029.6
29776 kPa | 1029.7
29815 kPa | 1029.6
29847 kPa | 1029.7
29886 kPa | 1029.7
29926 kPa | 1029.8
29959 kPa | 1029.8
29999 kPa | 1029.8
30033 kPa | 1030
30073 kPa | 1029.8
30115 kPa | 1029.9
30149 kPa | 1029.9
30190 kPa | 1029.9
30494 kPa | 1030.1
30523 kPa | 1030.1
30557 kPa | 1030.2
30591 kPa | 1030.2
30621 kPa | 1030.3
30656 kPa | 1030.2
30685 kPa | 1030.1
30721 kPa | 1030.3
30750 kPa | 1030.3
30945 kPa | 1030.3
30981 kPa | 1030.5
31016 kPa | 1030.3
31046 kPa | 1030.5
31082 kPa | 1030.5
31111 kPa | 1030.5
31147 kPa | 1030.5
31176 kPa | 1030.6
31212 kPa | 1030.4
31249 kPa | 1030.7
31280 kPa | 1030.7
31317 kPa | 1030.6
31347 kPa | 1030.6
31384 kPa | 1030.8
31414 kPa | 1030.8
31451 kPa | 1030.8
31487 kPa | 1030.8
31518 kPa | 1030.8
31554 kPa | 1030.8
31590 kPa | 1030.9
31621 kPa | 1030.9
31658 kPa | 1031
31688 kPa | 1030.9
31725 kPa | 1030.9
31763 kPa | 1031
31794 kPa | 1031
31831 kPa | 1030.9
31867 kPa | 1031.1
31898 kPa | 1031.1
31934 kPa | 1031.1
31970 kPa | 1031
32008 kPa | 1031.1
32044 kPa | 1031.1
32074 kPa | 1031.1
32111 kPa | 1031.4
32149 kPa | 1031.2
32255 kPa | 1031.2
32292 kPa | 1031.2
32329 kPa | 1031.2
32367 kPa | 1031.2
32398 kPa | 1031.5
32436 kPa | 1031.5
32474 kPa | 1031.3
32512 kPa | 1031.3
32544 kPa | 1031.4
32582 kPa | 1031.4
32621 kPa | 1031.5
32660 kPa | 1031.4
32699 kPa | 1031.6
32731 kPa | 1031.5
32769 kPa | 1031.5
32808 kPa | 1031.6
32846 kPa | 1031.6
32919 kPa | 1031.6
32958 kPa | 1031.8
33037 kPa | 1031.7
33070 kPa | 1031.8
33110 kPa | 1031.7
33151 kPa | 1031.7
33191 kPa | 1031.8
33231 kPa | 1032
33264 kPa | 1031.8
33304 kPa | 1032.1
33345 kPa | 1032.1
33379 kPa | 1032
33420 kPa | 1032.1
33461 kPa | 1032.1
33502 kPa | 1032.1
33951 kPa | 1032.4
33995 kPa | 1032.4
34033 kPa | 1032.3
34080 kPa | 1032.5
34127 kPa | 1032.4
34177 kPa | 1032.6
34220 kPa | 1032.5
34271 kPa | 1032.6
34323 kPa | 1032.5
34368 kPa | 1032.6
34420 kPa | 1032.7
34453 kPa | 1032.7
34484 kPa | 1032.7
34510 kPa | 1032.7
34517 kPa | 1032.7
34520 kPa | 1032.8
